The source of these data is BindingDB's records for doi:10.3109/14756366.2011.595713 (Suven Life Sciences Ltd, 2012).

The assay deals with 5-hydroxytryptamine receptor 6 (Homo sapiens, UniProt P50406). Kind of assay: Radioligand-Binding Assay. To be noted: pH 7.4; 37 °C. The protocol:
In brief, receptor source and radioligand used were human recombinant expressed in HEK-293 cells and [3H] LSD (60-80 Ci/mmol), respectively. The final ligand concentration was 1.5 nM and non-specific determinant was methiothepin mesylate ([…]). The reference compound and positive control is methiothepin mesylate. Reactions were carried out in 50 mM Tris-HCl (pH 7.4) containing 10 mM MgCl2, 0.5 mM EDTA for 60 min at 37°C. The reaction was terminated by rapid vacuum filtration onto glass fibre filters.

Structures are written as SMILES.

Sequence of 5-hydroxytryptamine receptor 6 (P50406 whole entry): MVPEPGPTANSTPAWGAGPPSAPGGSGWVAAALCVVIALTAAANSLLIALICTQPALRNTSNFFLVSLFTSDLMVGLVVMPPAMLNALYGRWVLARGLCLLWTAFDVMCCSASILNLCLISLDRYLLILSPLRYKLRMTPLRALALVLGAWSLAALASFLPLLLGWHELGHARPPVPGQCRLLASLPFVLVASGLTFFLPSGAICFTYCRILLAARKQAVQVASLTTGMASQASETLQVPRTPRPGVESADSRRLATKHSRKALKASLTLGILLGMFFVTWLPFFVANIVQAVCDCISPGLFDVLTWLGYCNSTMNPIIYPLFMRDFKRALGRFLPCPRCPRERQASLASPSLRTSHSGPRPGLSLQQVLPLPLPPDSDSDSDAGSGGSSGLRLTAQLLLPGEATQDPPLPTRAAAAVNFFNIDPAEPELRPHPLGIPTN

For orientation: Ki means a measure of affinity in units of concentration, obtained from inhibition or displacement. `CC(CC1=C2c3ccccc3S(=O)(=O)C2c2ccc(OCc3ccccc3)cc21)N(C)C` (stereo unspecified) [2-Benzyloxy-10-[(2-N,N-dimethylamino-2-methyl)ethyl]benzo[d]isothiazolo[3,2-a]indol-S,S-dioxide (18)] showed a Ki of 100 nM.

As for `CC(CC1=C2c3ccccc3S(=O)(=O)C2c2ccc(Br)cc21)N(C)C` (stereo unspecified) [2-Bromo-10-[(2-N,N-dimethylamino-2-methyl)ethyl]benzo[d]isothiazolo[3,2-a]indol-S,S-dioxide (13)], the affinity, expressed as Ki, was 54.1 nM.

For `CC(CC1=C2c3ccccc3S(=O)(=O)C2c2ccc(OCC3CCCCC3)cc21)N(C)C` (stereo unspecified) [2-Cyclohexylmethyloxy-10-[(2-N,N-dimethylamino-2-methyl)ethyl]benzo[d] isothiazolo[3,2-a]indol-S,S-dioxide (20)], the Ki is above 1000 nM.

As to `CCOc1ccc2c(c1)C(CC(C)N(C)C)=C1c3ccccc3S(=O)(=O)C12` (stereo unspecified) [2-Ethoxy-10-[(2-N,N-dimethylamino-2-methyl)ethyl]benzo[d]isothiazolo[3,2-a]indol-S,S-dioxide (17)], the Ki was 11.1 nM.

In turn, `CC(C)Oc1ccc2c(c1)C(CC(C)N(C)C)=C1c3ccccc3S(=O)(=O)C12` (stereo unspecified) [2-Isopropoxy-10-[(2-N,N-dimethylamino-2-methyl)ethyl]benzo[d] isothiazolo[3,2-a]indol-S,S-dioxide (19)] had a Ki of 239 nM.

As for `COc1ccc2c(c1)C(CCN(C)C)=C1c3ccccc3S(=O)(=O)C12` (stereo unspecified) [2-Methoxy-10-(2-N,N-dimethylaminoethyl)benzo[d]isothiazolo[3,2-a]indol-S,S-dioxide (14)], the Ki amounted to 96 nM. Against the preceding molecule, the Ki is about 2.5-fold lower.

The molecule `CCC(CC1=C2c3ccccc3S(=O)(=O)C2c2ccc(OC)cc21)N(C)C` (stereo unspecified) [2-Methoxy-10-[(2-N,N-dimethylamino-2-ethyl)ethyl]benzo[d]isothiazolo[3,2-a]indol-S,S-dioxide (16)] came in with a Ki of 28.3 nM. Against the preceding molecule, the Ki is about 3.4-fold lower.

Consider `COc1ccc2c(c1)C(CC(C)N(C)C)=C1c3ccccc3S(=O)(=O)C12` (stereo unspecified) [2-Methoxy-10-[(2-N,N-dimethylamino-2-methyl)ethyl)]benzo[d]isothiazolo[3,2-a]indol-S,S-dioxide (15)], for which the Ki stood at 11.6 nM.

Molecule `CN(C)CCC1=C2c3ccccc3S(=O)(=O)C2c2ccc(F)cc21` (stereo unspecified) [10-(2-N,N-Dimethylaminoethyl)-2-fluorobenzo[d]isothiazolo[3,2-a]indol-S,S-dioxide (7)] gave a Ki of 267 nM.

As to `CN(C)CCC1=C2c3ccccc3S(=O)(=O)C2c2ccccc21` (stereo unspecified) [10-(2-N,N-Dimethylaminoethyl)benzo[d]isothiazolo[3,2-a]indol-S,S-dioxide (6)], the Ki was determined as 246 nM. This Ki and that of the molecule before are within 1.5-fold of each other.

In turn, `CN(C)CCC1=C2c3ccccc3CC2c2c1ccc1ccccc21` (stereo unspecified) [10-(2-N,N-dimethylaminoethyl)benzo[d]isoindolo[2,1-a]indole (28)] registered a Ki of 92.6 nM.
